Test results reported in ChEMBL document CHEMBL5505990, “Novel aroyl guanidine anti-trypanosomal compounds that exert opposing effects on parasite energy metabolism” (Eur J Med Chem, 2024).
Calls of active or inactive are those of the source. No cut-off for these calls is given here.

Key:
[1] = Selectivity ratio of IC50 for HEK293 cells to IC50 for Trypanosoma brucei brucei; type: toxicity; details: human, read-out: Ratio IC50
[2] = test system: Trypanosoma brucei brucei; test: Anti-trypanosomal activity against Trypanosoma brucei brucei; type: functional, organism-based
[3] = Cytotoxicity against HEK293 cells; type: toxicity, cell-based; details: human
[4] = test system: Trypanosoma brucei brucei; test: Opposing effect on metabolism in bloodstream Trypanosoma brucei brucei 427 at 1 uM incubated for 5 hrs by LC-MS based principal component analysis; type: functional, organism-based
[5] = test system: Trypanosoma brucei brucei; test: Effect on nucleotide metabolism in bloodstream Trypanosoma brucei brucei 427 at 1 uM incubated for 5 hrs by pathway enrichment analysis; type: functional
[6] = test system: Trypanosoma brucei brucei; test: Effect on carbohydrate metabolism in bloodstream Trypanosoma brucei brucei 427 at 1 uM incubated for 5 hrs by pathway enrichment analysis; type: functional
[7] = test system: Trypanosoma brucei brucei; test: Disruption of nucleotide metabolism in bloodstream Trypanosoma brucei brucei 427 assessed as depletion of GTP at 1 uM incubated for 5 hrs; type: functional, organism-based
[8] = test system: Trypanosoma brucei brucei; test: Disruption of nucleotide metabolism in bloodstream Trypanosoma brucei brucei 427 assessed as depletion of UTP at 1 uM incubated for 5 hrs; type: functional, organism-based
[9] = test system: Trypanosoma brucei brucei; test: Disruption of nucleotide metabolism in bloodstream Trypanosoma brucei brucei 427 assessed as depletion of CTP at 1 uM incubated for 5 hrs; type: functional, organism-based
[10] = test system: Trypanosoma brucei brucei; test: Disruption of nucleotide metabolism in bloodstream Trypanosoma brucei brucei 427 assessed as depletion of deoxy-ATP at 1 uM incubated for 5 hrs; type: functional, organism-based
[11] = test system: Trypanosoma brucei brucei; test: Disruption of nucleotide metabolism in bloodstream Trypanosoma brucei brucei 427 assessed as depletion of deoxy-GTP at 1 uM incubated for 5 hrs; type: functional, organism-based
[12] = test system: Trypanosoma brucei brucei; test: Disruption of nucleotide metabolism in bloodstream Trypanosoma brucei brucei 427 assessed as depletion of deoxy-UTP at 1 uM incubated for 5 hrs; type: functional, organism-based
[13] = test system: Trypanosoma brucei brucei; test: Disruption of nucleotide metabolism in bloodstream Trypanosoma brucei brucei 427 assessed as depletion of deoxy-CTP at 1 uM incubated for 5 hrs; type: functional, organism-based
[14] = test system: Trypanosoma brucei brucei; test: Disruption of nucleotide metabolism in bloodstream Trypanosoma brucei brucei 427 assessed as accumulation of NDP at 1 uM incubated for 5 hrs; type: functional, organism-based
[15] = test system: Trypanosoma brucei brucei; test: Disruption of nucleotide metabolism in bloodstream Trypanosoma brucei brucei 427 assessed as accumulation of NMP at 1 uM incubated for 5 hrs; type: functional, organism-based
[16] = test system: Trypanosoma brucei brucei; test: Disruption of nucleotide metabolism in bloodstream Trypanosoma brucei brucei 427 assessed as accumulation of nucleosides at 1 uM incubated for 5 hrs; type: functional, organism-based
[17] = test system: Trypanosoma brucei brucei; test: Disruption of nucleotide metabolism in bloodstream Trypanosoma brucei brucei 427 assessed as accumulation of purine/pyrimidine base forms at 1 uM incubated for 5 hrs; type: functional, organism-based
[18] = test system: Trypanosoma brucei brucei; test: Disruption of nucleotide metabolism in bloodstream Trypanosoma brucei brucei 427 assessed as depletion of ATP at 1 uM incubated for 5 hrs relative to control; type: functional
[19] = test system: Trypanosoma brucei brucei; test: Induction of glycolysis in bloodstream Trypanosoma brucei brucei 427 assessed as increase in pyruvate level at 1 uM incubated for 5 hrs; type: functional
[20] = test system: Trypanosoma brucei brucei; test: Induction of glycolysis in bloodstream Trypanosoma brucei brucei 427 assessed as increase in glycerol level at 1 uM incubated for 5 hrs; type: functional
[21] = test system: Trypanosoma brucei brucei; test: Induction of glycolysis in bloodstream Trypanosoma brucei brucei 427 assessed as increase in succinate level at 1 uM incubated for 5 hrs; type: functional
[22] = test system: Trypanosoma brucei brucei; test: Downregulation of 6-phosphogluconate level in bloodstream Trypanosoma brucei brucei 427 assessed as increase in pyruvate level at 1 uM incubated for 5 hrs; type: functional
[23] = test system: Trypanosoma brucei brucei; test: Downregulation of NADPH level in bloodstream Trypanosoma brucei brucei 427 assessed as increase in pyruvate level at 1 uM incubated for 5 hrs; type: functional
[24] = test system: Trypanosoma brucei brucei; test: Upregulation of carnitine to acetyl-carnitine ratio in bloodstream Trypanosoma brucei brucei 427 assessed as increase in pyruvate level at 1 uM incubated for 5 hrs; type: functional
[25] = test system: Trypanosoma brucei brucei; test: Upregulation of glycolytic flux in bloodstream Trypanosoma brucei brucei 427 assessed as increase in pyruvate level at 1 uM incubated for 5 hrs; type: functional
[26] = test system: Trypanosoma brucei brucei; test: Effect on free CoA level in bloodstream Trypanosoma brucei brucei 427 assessed as increase in pyruvate level at 1 uM incubated for 5 hrs; type: functional
[27] = test system: Trypanosoma brucei brucei; test: Effect on free carnitine level in bloodstream Trypanosoma brucei brucei 427 assessed as increase in pyruvate level at 1 uM incubated for 5 hrs; type: functional
[28] = test system: Trypanosoma brucei brucei; test: Effect on acetyl-CoA level in bloodstream Trypanosoma brucei brucei 427 assessed as increase in pyruvate level at 1 uM incubated for 5 hrs; type: functional
[29] = test system: Trypanosoma brucei brucei; test: Effect on palmitoyl-CoA level in bloodstream Trypanosoma brucei brucei 427 assessed as increase in pyruvate level at 1 uM incubated for 5 hrs; type: functional
[30] = test system: Trypanosoma brucei brucei; test: Effect on stearoyl-CoA level in bloodstream Trypanosoma brucei brucei 427 assessed as increase in pyruvate level at 1 uM incubated for 5 hrs; type: functional
[31] = test system: Trypanosoma brucei brucei; test: Effect on acetyl-carnitine level in bloodstream Trypanosoma brucei brucei 427 assessed as increase in pyruvate level at 1 uM incubated for 5 hrs; type: functional
[32] = test system: Trypanosoma brucei brucei; test: Anti-trypanosomal activity against Trypanosoma brucei brucei incubated for 48 hrs by alamar blue assay; type: functional, organism-based
[33] = test system: Trypanosoma brucei brucei; test: Disruption of nucleotide metabolism in bloodstream Trypanosoma brucei brucei 427 assessed as depletion of NTP at 1 uM incubated for 5 hrs; type: functional, organism-based
[34] = test system: Trypanosoma brucei brucei; test: Disruption of nucleotide metabolism in bloodstream Trypanosoma brucei brucei 427 assessed as depletion of ATP at 1 uM incubated for 5 hrs; type: functional, organism-based
[35] = test system: Trypanosoma brucei brucei; test: Disruption of nucleotide metabolism in bloodstream Trypanosoma brucei brucei 427 assessed as accumulation of AMP at 1 uM incubated for 5 hrs; type: functional, organism-based
[36] = test system: Trypanosoma brucei brucei; test: Anti-trypanosomal activity against Trypanosoma brucei brucei at 10 uM relative to control; type: functional
[37] = Cytotoxicity against HEK293 cells assessed as inhibition of cell viability at 83 uM relative to control; type: toxicity, cell-based; details: human, read-out: INH
[38] = test system: Trypanosoma brucei brucei; test: Anti-trypanosomal activity against Trypanosoma brucei brucei at 42 uM relative to control; type: functional
[39] = test system: Trypanosoma brucei brucei; test: Disruption of nucleotide metabolism in bloodstream Trypanosoma brucei brucei 427 assessed as fold increase in AMP at 1 uM incubated for 5 hrs; type: functional

IC50 [2] [µM] | SMILES | selectivity ratio [1] | IC50 [3] [µM] | Activity [14] | Activity [15] | Activity [16] | Activity [17] | Activity [19] | Activity [20] | Activity [21] | Activity [22] | Activity [23] | Activity [24] | Activity [25] | Activity [26] | Activity [27] | Activity [28] | Activity [29] | Activity [30] | Activity [31] | further results
2.5 | Cc1cc(Br)ccc1/N=C(\NCCN1CCOCC1)NC(=O)c1ccccc1 | > 33 | > 83 | Active | Active | Active | Active | Active | Active | Active | Active | Active | Active | Active | Active | Active | inactive | Active | Active | Active | Activity [4]: Active; Activity [5]: Active; Activity [6]: Active; Activity [7]: Active; Activity [8]: Active; Activity [9]: Active; Activity [10]: Active; Activity [11]: Active; Activity [12]: Active; Activity [13]: Active; Activity [18]: 25%
 | CCc1ccccc1/N=C(\NCCN1CCOCC1)NC(=O)c1ccccc1 | ≥ 29 |  | inactive | inactive | inactive | inactive | inactive | inactive | inactive | inactive | inactive | inactive | inactive | inactive | inactive | Active | inactive | inactive | inactive | IC50 [32]: 2.6 µM; Activity [33]: inactive
4.4 | CCc1ccccc1/N=C(\NCCN1CCOCC1)NC(=O)c1ccc(C)cc1 | > 19 | > 83 | inactive | inactive | inactive | inactive | inactive | inactive | inactive | inactive | inactive | inactive | inactive | inactive | inactive | Active | inactive | inactive | inactive | Activity [4]: Active; Activity [5]: Active; Activity [6]: Active; Activity [34]: inactive; Activity [33]: inactive; Activity [35]: inactive
 | CCc1ccccc1/N=C(\NCCN1CCOCC1)NC(=O)c1cccc(Cl)c1 |  |  |  |  |  |  |  |  |  |  |  |  |  |  |  |  |  |  |  | inhibition at 10 µM [36]: 87%; cytotoxicity at 83 µM [37]: 67%; inhibition at 42 µM [38]: 68%
 | Cc1ccc(/N=C(\NCCN2CCOCC2)NC(=O)c2ccccc2)c(Cl)c1 |  |  |  |  |  |  | Active | Active | Active | Active | Active | Active | Active | Active | Active | inactive | Active | Active | Active | inhibition at 10 µM [36]: 54%; Activity [34]: Active; Activity [7]: Active; Activity [8]: Active; Activity [9]: Active; Activity [10]: Active; Activity [11]: Active; Activity [12]: Active; Activity [13]: Active; fold change (FC) [39]: 7
